In the Kinase Knowledgebase extract (Sharma et al. 2016):
“And” between values parts separate entries of the source, which are not always exact repeats. Identical values can stand only once.

These compounds were tested against ROCK2 (human) (UniProt O75116) (assay: Inhibition of ROCK2 Kinase Activity).
Sequence of ROCK2 (human) (O75116 whole entry, looked up): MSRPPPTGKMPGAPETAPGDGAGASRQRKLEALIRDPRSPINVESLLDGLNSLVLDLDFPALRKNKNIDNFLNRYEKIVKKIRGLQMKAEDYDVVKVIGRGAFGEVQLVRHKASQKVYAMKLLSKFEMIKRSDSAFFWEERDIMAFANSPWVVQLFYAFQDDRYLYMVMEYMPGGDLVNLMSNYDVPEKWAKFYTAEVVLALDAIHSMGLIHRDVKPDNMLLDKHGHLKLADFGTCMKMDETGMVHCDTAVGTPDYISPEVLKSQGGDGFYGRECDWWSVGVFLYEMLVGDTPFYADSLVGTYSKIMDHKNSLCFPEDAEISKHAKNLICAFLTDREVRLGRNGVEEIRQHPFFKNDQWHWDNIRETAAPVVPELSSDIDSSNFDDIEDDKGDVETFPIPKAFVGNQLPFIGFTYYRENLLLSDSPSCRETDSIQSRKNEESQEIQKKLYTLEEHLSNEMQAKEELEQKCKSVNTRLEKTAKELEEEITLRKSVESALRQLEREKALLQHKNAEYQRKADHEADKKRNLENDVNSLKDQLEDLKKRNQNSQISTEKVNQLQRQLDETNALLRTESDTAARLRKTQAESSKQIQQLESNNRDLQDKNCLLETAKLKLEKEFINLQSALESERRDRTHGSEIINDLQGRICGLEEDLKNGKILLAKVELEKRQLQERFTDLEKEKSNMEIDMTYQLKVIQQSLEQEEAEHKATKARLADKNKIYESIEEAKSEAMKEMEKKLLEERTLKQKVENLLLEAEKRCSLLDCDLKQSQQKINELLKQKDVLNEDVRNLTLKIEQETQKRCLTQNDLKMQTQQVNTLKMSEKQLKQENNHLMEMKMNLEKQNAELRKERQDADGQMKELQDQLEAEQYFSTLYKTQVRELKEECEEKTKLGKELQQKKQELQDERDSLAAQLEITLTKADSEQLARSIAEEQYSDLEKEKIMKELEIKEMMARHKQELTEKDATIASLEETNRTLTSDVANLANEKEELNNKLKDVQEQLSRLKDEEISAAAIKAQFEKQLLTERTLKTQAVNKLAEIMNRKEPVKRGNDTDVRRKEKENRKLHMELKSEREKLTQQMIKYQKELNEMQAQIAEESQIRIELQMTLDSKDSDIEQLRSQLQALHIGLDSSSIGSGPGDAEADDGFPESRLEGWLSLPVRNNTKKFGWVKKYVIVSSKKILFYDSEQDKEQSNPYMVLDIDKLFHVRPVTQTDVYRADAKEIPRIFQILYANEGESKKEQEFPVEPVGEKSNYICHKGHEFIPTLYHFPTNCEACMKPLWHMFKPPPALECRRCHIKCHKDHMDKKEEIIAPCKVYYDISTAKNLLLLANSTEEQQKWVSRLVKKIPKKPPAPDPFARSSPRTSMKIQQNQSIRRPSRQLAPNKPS

`CC(N)(c1ccc(F)cc1)C1CCC(Oc2cc3cc[nH]c(=O)c3cc2Cl)CC1` (centres undefined) and `COc1ccc(C(C)(N)C2CCC(Oc3cc4cc[nH]c(=O)c4cc3Cl)CC2)cc1` (centres undefined) fall in the same range of IC50: 10 to 100 nM for the first, 10 to 100 nM for the second.

`CC(N)(C1CCC(Oc2cc3cc[nH]c(=O)c3cc2Cl)CC1)C1CC1` (centres undefined) and `CC(N)(C1CCCC1)C1CCC(Oc2cc3cc[nH]c(=O)c3cc2Cl)CC1` (centres undefined) fall in the same range of IC50: 100 to 1000 nM for the first, 100 to 1000 nM for the second.

`CCC(N)[C@]1(c2cccc(Br)c2)CC[C@H](Oc2cc3cc[nH]c(=O)c3cc2Cl)CC1` (some centres undefined) and `CC[C@@H](N)[C@]1(c2ccccc2)CC[C@H](Oc2cc3cc[nH]c(=O)c3cc2Cl)CC1` cannot be ordered by IC50: at most 10 nM for the first, at most 10 nM for the second.

`CC(N)(c1ccccc1)C1CCC(Oc2cc3cc[nH]c(=O)c3cc2Cl)CC1` (centres undefined) and `CCCC(C)(N)C1CCC(Oc2cc3cc[nH]c(=O)c3cc2Cl)CC1` (centres undefined) fall in the same range of IC50: 10 to 100 nM for the first, 10 to 100 nM for the second.

`COc1ccc(C(N)[C@H]2CC[C@@H](Oc3cc4cc[nH]c(=O)c4cc3Cl)CC2)cc1` (some centres undefined) and `COc1ccc(C(N)[C@H]2CC[C@H](Oc3cc4cc[nH]c(=O)c4cc3Cl)CC2)cc1` (some centres undefined) cannot be ordered by IC50: at most 10 nM for the first, 10 to 100 nM for the second.

First: CC[C@@H](N)[C@]1(c2ccc(F)cc2)CC[C@H](Oc2cc3cc[nH]c(=O)c3cc2Cl)CC1
Second: CCC(N)C1(c2ccc(F)cc2)CC(Oc2cc3cc[nH]c(=O)c3cc2Cl)C1 (centres undefined)
The IC50 of the first is lower: at most 10 nM for the first, 100 to 1000 nM for the second. The first is the more potent here.

Compared with `N[C@H](c1ccccc1)[C@]1(c2ccccc2)CC[C@@H](Oc2cc3cc[nH]c(=O)c3cc2Cl)CC1`, `N[C@@H](c1ccccc1)[C@]1(c2ccccc2)CC[C@@H](Oc2cc3cc[nH]c(=O)c3cc2Cl)CC1` is higher in IC50: 10 to 100 nM for the first, 100 to 1000 nM for the second. The first is the more potent here.

`NC(c1ccc(F)cc1)C1CCC(Oc2cc3cc[nH]c(=O)c3cc2Cl)CC1` (centres undefined) and `N[C@@H](c1ccc(F)cc1)C1CCC(Oc2cc3cc[nH]c(=O)c3cc2Cl)CC1` (some centres undefined) cannot be ordered by IC50: at most 10 nM for the first, at most 10 nM for the second.

`CCC(N)[C@]1(c2ccc(C)c(OC)c2)CC[C@H](Oc2cc3cc[nH]c(=O)c3cc2Cl)CC1` (some centres undefined) and `CC[C@@H](N)[C@]1(c2ccccc2)CC[C@@H](Oc2cc3cc[nH]c(=O)c3cc2Cl)CC1` cannot be ordered by IC50: at most 10 nM for the first, 10 to 100 nM for the second.

First: CCC(N)C1CCC(Oc2cc3cc[nH]c(=O)c3cc2Cl)CC1 (centres undefined)
Second: NC(C1CCC(Oc2cc3cc[nH]c(=O)c3cc2Cl)CC1)C1CC1 (centres undefined)
The IC50 of the first is lower: 10 to 100 nM for the first, 100 to 1000 nM for the second. The first is the more potent here.

First: N[C@H](c1ccc(F)cc1)C1CCC(Oc2cc3cc[nH]c(=O)c3cc2Cl)CC1 (some centres undefined)
Second: CC[C@H](N)[C@]1(c2ccccc2)CC[C@H](Oc2cc3cc[nH]c(=O)c3cc2Cl)CC1
The IC50 of the first is higher: 100 to 1000 nM for the first, at most 10 nM for the second.

`Cc1ccc(C(N)C2CCC(Oc3cc4cc[nH]c(=O)c4cc3Cl)CC2)cc1` (centres undefined) was tested, and the IC50 was ≤ 10 nM and 10 to 100 nM.
`CCC(N)(CC)C1CCC(Oc2cc3cc[nH]c(=O)c3cc2Cl)CC1` (centres undefined) was tested, and the IC50 was 100 to 1000 nM and 10 to 100 nM.
